Measured values published in patent US7094869B2, “Low molecular weight peptidomimetic growth hormone secretagogues” (Genentech, Inc., priority 1994, dated 2006).
Read-outs that look alike come from different tables or passages of the source. Non-standard residues stand in square brackets, D forms with d. Residues, ends and D or L forms follow the SMILES beside them. d2Nal = N[C@H](Cc1ccc2ccccc2c1)C(=O)O; Inp = O=C(O)C1CCNCC1

Columns and labels:
[1] = Combination GHRP and IGF-1 treatment of obese Zucker Diabetic Fatty (ZDF) rats; assay type: in vivo, rat; settings: for body weight gain: obese ZDF male rats, rhGH 500 μg/d
Procedure: Ten lean ZDF rats served as an additional control group.
This GHRP was given by sc. injection twice daily, each dose of 100 μl therefore containing 50 μg/injection or 100 μg/day.
Recombinant human IGF-1 (rhIGF-1) at 13.8 mg/ml in acetate buffer was loaded into osmotic minipumps (Alza, Palo Alto, model 2ML4, pump rate 2.29 μl/hr for 28 days, fill volume 2064 μl). Other pumps were filled with acetate buffer. […] The delivered dose of rhIGF-1 was therefore 758 μg/day. Recombinant human growth hormone (rhGH, Lot R9092AX, Genentech Inc.) was diluted in sterile water to 2.5 g/l and a 100 μl injection given twice daily (250 μg/injection, or 500 μg/day).
The next day the osmotic pumps were inserted into rats. […] All rats not receiving rhIGF-1 containing pumps were implanted with pumps delivering the acetate buffer excipient.
On day 24 blood was withdrawn after a 4 hour fast and 1.5 U/kg of regular insulin was injected i.p. and a second blood sample taken 30 minutes later. The rats were then sacrificed using carbon dioxide, bled from the heart, and organs taken. Serum glucose was measured by standard automated procedures.
Data are presented as mean±standard error (SE) of the mean with 8 rats per group.

[2] = biological target: T1, rat pituitary cells (Rattus norvegicus, UniProt O08725)
T1 sequence (O08725 whole entry): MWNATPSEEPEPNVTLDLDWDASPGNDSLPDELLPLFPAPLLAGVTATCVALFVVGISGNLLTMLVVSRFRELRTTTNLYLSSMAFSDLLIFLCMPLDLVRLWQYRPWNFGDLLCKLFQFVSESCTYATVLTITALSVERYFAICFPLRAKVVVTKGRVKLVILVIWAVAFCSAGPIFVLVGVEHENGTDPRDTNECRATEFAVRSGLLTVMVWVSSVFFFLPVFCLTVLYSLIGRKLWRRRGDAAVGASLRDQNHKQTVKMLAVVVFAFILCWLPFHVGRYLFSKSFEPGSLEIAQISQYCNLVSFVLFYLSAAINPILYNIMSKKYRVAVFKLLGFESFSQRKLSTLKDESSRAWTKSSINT
Procedure, shortened: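 Primary rat anterior pituitary cells, cultured three days in DME low glucose/10% FBS, were washed, pre-incubated twice for 15 min, then challenged 15 min with test compounds (DMSO ≤0.1%) at 37 °C. Released GH was measured by two-site ELISA; EC50 came from 4-parameter fits, mean of three to four independent determinations.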

[3] = system: growth hormone secretion; assay: GHRP induced growth hormone secretion, intravenous administration (Rat IV); assay type: in vivo; settings: iv injection, serum GH 10 min after injection
Procedure, shortened: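 Female Sprague Dawley rats (24-30 days, 50-90 g) under intraperitoneal pentobarbitone received graded intravenous tail-vein peptide doses in pH 5.0 sodium acetate/mannitol buffer 20 min post-anaesthesia. Blood by cardiac puncture 10 min after dosing; serum GH measured by rat GH ELISA in duplicate.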

[4] = Combination GHRP and IGF-1 treatment of normal rats (7 days); assay type: in vivo, rat; settings: for body weight gain (in words): 7 days, twice daily sc injections, normal adult female rats, GHRH 300, GHRPs 50, L-692,585 150 μg/dose
Procedure: The rats were weighed on the day of surgery and randomized into 12 groups of 5/group using a grouping program.
The GH secretagogues were given by sc. injection twice daily, each dose of 100 μl. […] Recombinant human IGF-1 (rhIGF-1) at 2.5 mg/ml in acetate buffer was loaded into osmotic minipumps (Alza, Palo Alto, model 2ML1, pump rate 10.16 μl/hr for 7 days, fill volume 2086 μl). Other pumps were filled with acetate buffer. […] The delivered dose of rhIGF-1 was therefore 610 μg/day.
The next day the osmotic pumps were inserted into rats. […] All rats not receiving rhIGF-1 containing pumps were implanted with pumps delivering the acetate buffer excipient. […] The treatment groups were;
The rats were sacrificed using carbon dioxide, bled from the heart and organs taken. Serum chemistries were measured by standard automated procedures.

[5] = biological target: T1, rat pituitary cells; assay: Rat “pit” cell challenges: combinations with GHRP-6/GHRH, desensitization, somatostatin suppression, GHRP antagonist; assay type: cell-based; settings: for GH response compared with control / GH release after sequential 15 min incubations with fresh compound (desensitization): 100 nM; for GH release in combination with GHRH: GHRP 100 nM plus GHRH 10 or 100 nM; for GH release in combination with GHRP-6: both at 100 nM; for GH release in the presence of 20 nM somatostatin: coincubation with 20 nM somatostatin; for GH release after sequential 15 min incubations with fresh compound (desensitization): three sequential 15 min incubations
Procedure: Dispersion: Adult female Sprague-Dawley (160-180 g., Charles River) rats were group-caged in a 12:12 light:dark cycle with food and water available ad libitum. Pituitaries from ten rats were removed, the posterior pituitary discarded and the anterior pituitary placed in Hanks' Balanced Salt Solution (HBSS: without calcium chloride, w/o magnesium chloride, w/o magnesium sulfate; Gibco) containing 20 mM HEPES (Gibco) and 100 U/ml penicillin streptomycin (PS: JRH Biosciences). Under sterile conditions, pituitaries were rinsed twice then minced into small fragments with a razor blade. Fragments were resuspended in 5 ml of HBSS/HEPES containing 20 mg collagenase (Serva 17449) and 200 ml of 1 mg/ml DNase (Sigma) for a 40 min. incubation in a 37° C. gyrotory water bath shaker (New Brunswick Scientific Model G76; setting 10). After the incubation, fragments were triturated to yield small clumps and single cells. The cells were centrifuged 1000× g for 5 min, resuspended, counted and plated at a final cell concentration of 100,000 cells/ml. Incubation media was DME low glucose media w/NaHCO3 (Gibco) containing 20 mM hepes, 100 U/ml PS and 10% FBS (Hyclone A-111-L). Cells were plated at 0.5 ml per well in 48 well plates (Falcon) and incubated at 37° C. in 5% C02 for three days. […] The highest concentration of DMSO in media was 0.1%. Stock solutions (1 mM) of rat GHRH, somatostatin (Sigma) and GHRP antagonist HwkWfK were made fresh in media and diluted appropriately. The media used in all challenges and washing steps was DME low glucose with 20 mM Hepes, 100 U/ml PS, 10% FBS. Media was warmed to 37° C. and gassed by placing it into the incubator prior to challenge. On day three, the media was discarded and fresh media (approximately 1 ml) added for the first of three washes. After the last wash, the plate was placed back in the incubator for a 15 min pre-incubation. Then cells were washed 2× (with warmed and gassed media) and fresh 0.5 ml media were added for the second 15 min. pre-incubation. After the second pre-incubation cells were washed 2× as above and 0.5 ml of control and test solutions were added for a final 15 min incubation. After this incubation, the media were removed for subsequent GH ELISA. GH ELISA: A two-site ELISA was used to determine rat GH concentration in the media. Briefly, goat anti-rat GH antibody (lot#19164-20) was used to coat Nunc immunoplates overnight. After blocking and washing, standard (rat GH reference preparation: Parlow) and challenge media is diluted 1:20 prior to GH assay were added for a 1 hr room temperature incubation. STATISTICS: The mean for each group was determined and analyzed by one-way analysis of variance with a post-hoc Student-Newman-Keuls. Significance is defined as P<0.05. The EC50 was calculated using a 4-parameter curve-fit program (Kaleidagraph). Three to four independent EC50s were used to derive the mean and SEM.

[6] = GHRP induced dose dependent weight gain in rats (sc minipump infusion, 14 days); assay type: in vivo, rat
Procedure: Rat GHRH (1-43) was dissolved in the same buffer at 25 g/l.
The next day these osmotic pumps were inserted into rats.
Serum chemistries were measured by standard automated procedures.

[7] = read-out: PIT Cell EC50, Table IV, formula III compounds, GH release, 15 min incubation
[8] = read-out: EC50 of the representative GH dose response, single representative experiment, 15 min exposure
[9] = read-out: mean EC50, mean ± SE of independent EC50s
[10] = Day 2, GHRP 100 μg/d sc injection, rhIGF-1 758 μg/d pump
[11] = high dose (inip) b b F K-NH2 100 μg/day, GHRH 600 μg/day, 14 d infusion

For `NCCCC[C@H](NC(=O)[C@H](Cc1ccccc1)NC(=O)[C@@H](Cc1ccc2ccccc2c1)NC(=O)[C@@H](Cc1ccc2ccccc2c1)NC(=O)C1CCNCC1)C(N)=O` (stereo in doubt) [(inip) b b F K amide, (inip)-DβNal-DβNal-Phe-Lys-amide], which blood glucose ([1]; rat, in vivo) is on record?
Its blood glucose is 542±37 mg %.

With `NC(=O)[C@H](Cc1ccccc1)NC(=O)[C@@H](Cc1ccc2ccccc2c1)NC(=O)[C@@H](Cc1ccc2ccccc2c1)NC(=O)C1CCNCC1` [(inip) b b F amide, (inip)-DβNal-DβNal-Phe-amide] (H-[Inp][d2Nal][d2Nal]F-NH2) as the compound, how does the EC50 [2, 7] read?
The EC50 was 0.28 nM.

What about the “RAT IV ED50” value ([3]; Table IV) of the same compound?
Its value is 1.7 µg.

And the “body weight gain (in words)” value [4]?
Its value is “significant body weight gain”.

What about the weight gain ([4]; in 7 days, 50 μg/dose twice daily sc) of the same compound?
The weight gain was 36 ± 8 g.

What does the source list for `O=C(N[C@H](Cc1ccc2ccccc2c1)C(=O)N[C@@H](CO)Cc1c[nH]c2ccccc12)C1CCNCC1` [(inip) b wol, (inip)-DβNal-(D-Tryptophanol)]?
EC50 [2, 8]: 3.9 nM; EC50 [2, 9]: 10.6 ± 6.2 nM; RAT IV ED50 ([3]; Table V): 0.8 µg; GH response compared with control [5]: significantly greater than control; GH release in combination with GHRH [5]: synergistic; GH release in combination with GHRP-6 [5]: not synergistic; GH release in the presence of 20 nM somatostatin [5]: totally suppressed; GH release after sequential 15 min incubations with fresh compound (desensitization) [5]: no significant release of GH

What does the source list for “rhGH: Recombinant human growth hormone (Lot R9092AX, Genentech Inc.)”?
body weight gain [1, 10]: 13.6 ± 2.5 g; blood glucose ([1]; rat, in vivo): 725±30 mg %; fasting blood glucose ([1]; rat, in vivo): 504±38 mg %; serum insulin ([1]; rat, in vivo): 48 ± 6 ng/mL

With “GHRH: Rat GHRH (1-43), growth hormone releasing hormone, positive control (HADAIFTSSYRRILGQLYARKLLHEIMNRQQGERNQEQRSRFN; Somatoliberin; UniProt P09916 31-73, looked up) [reference compound]” as the compound, how does the “GH response compared with control” value [5] read?
Its value is “mild GH response”.

And the epiphyseal plate width ([6]; 14 d infusion)?
The epiphyseal plate width was “no statistically significant increase”.

What about the “pituitary and kidney weight” value ([6]; 14 d infusion) of the same compound?
Its value is “not affected”.

And the “liver weight (in words)” value ([6]; GHRH 600 μg/day, 14 d infusion)?
The value was “significantly increased”.

What about the “heart weight compared to excipient” value ([6]; high dose 100 μg/day, GHRH 600 μg/day) of the same compound?
The value was “increased”.

What about the spleen weight [6, 11] of the same compound?
The spleen weight was 624 ± 23 mg.

What about the thymus weight [6, 11] of the same compound?
The thymus weight was 575 ± 39 mg.

And the “body weight gain compared to excipient” value ([6]; sc minipump 14 days, (inip) b b F K-NH2 4, 20, 100 μg/d, GHRH 600 μg/d, 90 day old female rats)?
Its value is “significant body weight and organ weight gain”.

What about the “body weight gain (in words)” value [4] of the same compound?
Its value is “significant body weight gain”.

Which “fold more potent than GHRP-6” value ([2]; ratio of pit cell EC50s) does the source give for `NC(=O)CN(CCc1ccccc1)C(=O)[C@@H](Cc1ccc2ccccc2c1)NC(=O)[C@@H](Cc1ccc2ccccc2c1)NC(=O)C1CCNCC1` [(inip) b b feg amide, (inip)-DβNal-DβNal-(N-2-phenylethyl-Gly) amide] here?
The value was ~25 fold.

And the EC50 [2, 8]?
Its EC50 is 0.09 nM.

What about the EC50 [2, 9] of the same compound?
The EC50 was 0.25 ± 0.19 nM.

And the “RAT IV ED50” value ([3]; Table IV)?
The value was 1 µg.

What about the “GH response compared with control” value [5] of the same compound?
The value was “significantly greater than control”.

What about the “GH release in combination with GHRH” value [5] of the same compound?
Its value is “synergistic”.

What about the “GH release in combination with GHRP-6” value [5] of the same compound?
The value was “not synergistic”.

What about the “GH release in the presence of 20 nM somatostatin” value [5] of the same compound?
Its value is “totally suppressed”.

And the “GH release after sequential 15 min incubations with fresh compound (desensitization)” value [5]?
Its value is “markedly decreased”.

Which EC50 [2, 7] does the source give for `CN(C(=O)[C@@H](Cc1ccc2ccccc2c1)NC(=O)C1CCNCC1)[C@H](Cc1ccc2ccccc2c1)C(=O)NCCCCN` [(inip) b nmb bam, (inip)-DβNal-(N-Me-DβNal)-[N-(4-aminobutyl)] amide] here?
The EC50 was 0.3 nM.

And the “RAT IV ED50” value ([3]; Table IV)?
The value was 1.67 µg.

What about the “body weight gain (in words)” value [4] of the same compound?
Its value is “significant body weight gain”.

For “rhIGF-1: Recombinant human insulin-like growth factor-1”, which body weight gain [1, 10] is on record?
Its body weight gain is 21.5 ± 0.7 g.

And the body weight gain ([1]; day 24, GHRP 100 μg/d, rhIGF-1 758 μg/d)?
The body weight gain was 232 ± 2 g.

What about the blood glucose ([1]; rat, in vivo) of the same compound?
The blood glucose was 1774 mg %.

What about the serum insulin ([1]; rat, in vivo) of the same compound?
The serum insulin was 8 ± 1 ng/mL.
